From the supplement of paper PMC11451515

Tested on: NOMO1
Experiment: cell viability relative to DMSO control; higher = less cytotoxic
Conditions: 48 h
Method in brief: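 Library compounds in DMSO were pin-dosed into 1536-well plates (5 μl) holding NOMO1 or SEM (500 cells/well) or P12-Ichikawa (1000 cells/well) leukemia cells, across an 11-point threefold series of 47 μM to 0.79 nM. Each cell line had been adapted for at least four passages in each medium. CellTiter-Glo One luminescence was read after 48 h at 37°C. Viability is the per-plate percentage relative to DMSO wells, with cell-free wells as background.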

[1] = HPLM + 10% dialyzed FBS, 0.000781 µM
[2] = HPLM + 10% dialyzed FBS, 0.00234 µM
[3] = HPLM + 10% dialyzed FBS, 0.00702 µM
[4] = HPLM + 10% dialyzed FBS, 0.0211 µM
[5] = HPLM + 10% dialyzed FBS, 0.0632 µM
[6] = HPLM + 10% dialyzed FBS, 0.19 µM
[7] = HPLM + 10% dialyzed FBS, 0.569 µM
[8] = HPLM + 10% dialyzed FBS, 1.71 µM
[9] = HPLM + 10% dialyzed FBS, 5.12 µM
[10] = HPLM + 10% dialyzed FBS, 15.4 µM
[11] = HPLM + 10% dialyzed FBS, 46.1 µM
[12] = RPMI 5 mM glucose + 10% FBS, 0.000781 µM
[13] = RPMI 5 mM glucose + 10% FBS, 0.00234 µM
[14] = RPMI 5 mM glucose + 10% FBS, 0.00702 µM
[15] = RPMI 5 mM glucose + 10% FBS, 0.0211 µM
[16] = RPMI 5 mM glucose + 10% FBS, 0.0632 µM
[17] = RPMI 5 mM glucose + 10% FBS, 0.19 µM
[18] = RPMI 5 mM glucose + 10% FBS, 0.569 µM
[19] = RPMI 5 mM glucose + 10% FBS, 1.71 µM
[20] = RPMI 5 mM glucose + 10% FBS, 5.12 µM
[21] = RPMI 5 mM glucose + 10% FBS, 15.4 µM
[22] = RPMI 5 mM glucose + 10% FBS, 46.1 µM
[23] = RPMI 5 mM glucose + 10% dialyzed FBS, 0.000781 µM
[24] = RPMI 5 mM glucose + 10% dialyzed FBS, 0.00234 µM
[25] = RPMI 5 mM glucose + 10% dialyzed FBS, 0.00702 µM
[26] = RPMI 5 mM glucose + 10% dialyzed FBS, 0.0211 µM
[27] = RPMI 5 mM glucose + 10% dialyzed FBS, 0.0632 µM
[28] = RPMI 5 mM glucose + 10% dialyzed FBS, 0.19 µM
[29] = RPMI 5 mM glucose + 10% dialyzed FBS, 0.569 µM
[30] = RPMI 5 mM glucose + 10% dialyzed FBS, 1.71 µM
[31] = RPMI 5 mM glucose + 10% dialyzed FBS, 5.12 µM
[32] = RPMI 5 mM glucose + 10% dialyzed FBS, 15.4 µM
[33] = RPMI 5 mM glucose + 10% dialyzed FBS, 46.1 µM

Row | SMILES | cell viability [1] | cell viability [2] | cell viability [3] | cell viability [4] | cell viability [5] | cell viability [6] | cell viability [7] | cell viability [8] | cell viability [9] | cell viability [10] | cell viability [11] | cell viability [12] | cell viability [13] | cell viability [14] | cell viability [15] | cell viability [16] | cell viability [17] | cell viability [18] | cell viability [19] | cell viability [20] | cell viability [21] | cell viability [22] | cell viability [23] | cell viability [24] | cell viability [25] | cell viability [26] | cell viability [27] | cell viability [28] | cell viability [29] | cell viability [30] | cell viability [31] | cell viability [32] | cell viability [33]
1 | Cc1ccc(C)c(OCCCC(C)(C)C(=O)O)c1 | 92.3% | 84.2% | 93% | 95.6% | 89.9% | 102% | 105% | 88.4% | 98.9% | 104% | 98.3% | 78.1% | 93.7% | 101% | 94.1% | 85.5% | 105% | 99.4% | 88.7% | 92.1% | 96.5% | 92.9% | 76.5% | 92% | 88.9% | 94.1% | 96.1% | 103% | 101% | 81.3% | 88.3% | 106% | 96.2%
2 | Cc1n[nH]c2ccc(-c3cncc(OC[C@@H](N)Cc4c[nH]c5ccccc45)c3)cc12 |  |  |  |  |  |  |  |  |  |  |  | 108% | 114% | 116% | 118% | 117% | 77.4% | 92.6% | 33.2% | 8.24% | 1.64% | 1.13% | 104% | 112% | 93.1% | 94.6% | 93.1% | 63.5% | 63.6% | 29.6% | 5.35% | 1.27% | 0.733%
3 | CNC(=O)c1cc(COc2nnc(Nc3ccc(Cl)cc3)c3ccoc23)ccn1 | 110% | 110% | 107% | 103% | 114% | 131% | 114% | 107% | 98.2% | 91.1% | 65.7% | 114% | 123% | 106% | 112% | 110% | 111% | 109% | 104% | 92.6% | 87.4% | 87.5% | 104% | 111% | 107% | 101% | 109% | 102% | 92.7% | 96.4% | 98.6% | 101% | 87.3%
4 | COC1=CC2=C(C=C1CC3=C(F)C(=CC=C3)Cl)C(=O)\C(=C/N2[C@H](CO)C(C)C)C(O)=O | 122% | 142% | 123% | 128% | 114% | 131% | 124% | 118% | 127% | 89.6% | 27.7% | 115% | 117% | 109% | 104% | 115% | 129% | 108% | 102% | 110% | 102% | 14.7% | 110% | 118% | 138% | 130% | 131% | 129% | 123% | 118% | 123% | 115% | 24.7%
5 | CN1\C(=C(O)/C2=C(C=C(Cl)S2)[S+]1([O-])=O)C(=O)NC3=NC=CC=C3 | 138% | 112% | 116% | 125% | 119% | 111% | 132% | 103% | 125% | 123% | 108% | 109% | 108% | 110% | 105% | 119% | 128% | 126% | 109% | 108% | 121% | 111% | 115% | 101% | 126% | 120% | 131% | 126% | 123% | 118% | 112% | 116% | 114%
6 | NC(=O)[C@@H](CCC(F)(F)F)N(Cc1ccc(-c2ncon2)cc1F)[S+](=O)([O-])c1ccc(Cl)cc1 | 107% | 106% | 113% | 108% | 109% | 105% | 97.5% | 91.7% | 96.3% | 71% | 3.05% | 92.8% | 103% | 91.1% | 90.6% | 97.8% | 96.3% | 78.5% | 73.9% | 84.6% | 77.2% | 61% | 94.4% | 93% | 97.1% | 88.3% | 96.9% | 105% | 87% | 83.2% | 88.5% | 81.6% | 50.2%
7 | Cc1cccc(Nc2nc(N[C@@H]3CCCC[C@@H]3N)ncc2C(N)=O)c1 | 119% | 109% | 119% | 115% | 115% | 126% | 110% | 80.9% | 77.4% | 85.5% | 83% | 96.1% | 106% | 114% | 117% | 129% | 109% | 113% | 99.1% | 58.7% | 56% | 51.5% | 101% | 99.2% | 109% | 107% | 119% | 115% | 108% | 82.4% | 55.5% | 58.6% | 56.8%
8 | OCCN1CCN(CCCN2c3ccccc3Sc3ccc(C(F)(F)F)cc32)CC1 | 123% | 121% | 107% | 122% | 111% | 106% | 98.8% | 122% | 73.2% | 43% | 27.7% | 104% | 104% | 100% | 121% | 97.5% | 110% | 112% | 105% | 104% | 25.7% | 21.3% | 91.6% | 102% | 108% | 105% | 105% | 109% | 110% | 97.3% | 109% | 93.9% | 24.8%
